Results reported in patent publication US20100267561A1, “HERBICIDAL PYRIDAZINONE DERIVATIVES” (priority 2007, published 2010).

Assays:
Assay type in all cases: in vivo
[1] = system: annual bluegrass (Poa annua); experiment: Test C pre-/postemergence plant response; conditions: Preemergence
Method in brief: (§1)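 Test chemicals in a non-phytotoxic solvent with surfactant were applied preemergence, and some were also applied postemergence to plants 2–18 cm tall (1- to 4-leaf stage). Visual ratings against controls were made after 15–25 days in a controlled environment, on a 0–100 scale where 100 means complete control.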

[2] = system: canarygrass (Phalaris minor); experiment: Test C pre-/postemergence plant response; conditions: Preemergence
Method in brief: as §1

[3] = system: wild oat (Avena fatua); experiment: Test C pre-/postemergence plant response; conditions: Preemergence
Method in brief: as §1

[4] = system: windgrass (Apera spica-venti); experiment: Test C pre-/postemergence plant response; conditions: Preemergence
Method in brief: as §1

[5] = system: bermudagrass (Cynodon dactylon); experiment: Test E pre-/postemergence plant response; conditions: Postemergence, scale 0 to 100
Method in brief: (§2)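 Pre- and postemergence greenhouse test; compounds formulated in non-phytotoxic solvent with surfactant, postemergence plants 2–18 cm (1- to 4-leaf stage). Visual rating against untreated controls after 14 to 21 days, on a 0 (no effect) to 100 (complete control) scale.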

[6] = system: broadleaf signalgrass (Brachiaria platyphylla); experiment: Test E pre-/postemergence plant response; conditions: Postemergence, scale 0 to 100
Method in brief: as §2

[7] = system: itchgrass (Rottboellia cochinchinensis); experiment: Test E pre-/postemergence plant response; conditions: Postemergence, scale 0 to 100
Method in brief: as §2

[8] = system: johnsongrass (Sorghum halepense); experiment: Test E pre-/postemergence plant response; conditions: Postemergence, scale 0 to 100
Method in brief: as §2

[9] = system: large crabgrass (Digitaria sanguinalis); experiment: Test E pre-/postemergence plant response; conditions: Postemergence, scale 0 to 100
Method in brief: as §2

[10] = system: naked crabgrass (Digitaria nuda); experiment: Test E pre-/postemergence plant response; conditions: Postemergence, scale 0 to 100
Method in brief: as §2

[11] = system: purple nutsedge (Cyperus rotundus); experiment: Test E pre-/postemergence plant response; conditions: Postemergence, scale 0 to 100
Method in brief: as §2

[12] = system: southern (S.) sandbur (Cenchrus echinatus); experiment: Test E pre-/postemergence plant response; conditions: Postemergence, scale 0 to 100
Method in brief: as §2

[13] = system: surinam grass (Brachiaria decumbens); experiment: Test E pre-/postemergence plant response; conditions: Postemergence, scale 0 to 100
Method in brief: as §2

[14] = 8 g ai/ha, scale 0 to 100 (0 no effect, 100 complete control)
[15] = 16 g ai/ha, scale 0 to 100 (0 no effect, 100 complete control)
[16] = 31 g ai/ha, scale 0 to 100 (0 no effect, 100 complete control)
[17] = 62 g ai/ha, scale 0 to 100, 0 no effect, 100 complete control

## Cc1cc(-c2ccc(Cl)cc2)nn1-c1c(OC(=O)Oc2ccccc2)cnn(C)c1=O [Compound 54]
[1]; [14]
  Plant response rating, Bluegrass: 0
[1]; [15]
  Plant response rating, Bluegrass: 0
[1]; [16]
  Plant response rating, Bluegrass: 0
[1]; [17]
  Plant response rating, Bluegrass: 25
[2]; [14]
  Plant response rating, Canarygrass: 0
[2]; [15]
  Plant response rating, Canarygrass: 70
[2]; [16]
  Plant response rating, Canarygrass: 80
[2]; [17]
  Plant response rating, Canarygrass: 95
[3]; [14]
  Plant response rating, Oat, Wild: 0
[3]; [15]
  Plant response rating, Oat, Wild: 0
[3]; [16]
  Plant response rating, Oat, Wild: 40
[3]; [17]
  Plant response rating, Oat, Wild: 70
[4]; [14]
  Plant response rating, Windgrass: 0
[4]; [15]
  Plant response rating, Windgrass: 0
[4]; [16]
  Plant response rating, Windgrass: 60
[4]; [17]
  Plant response rating, Windgrass: 75
[5]; 8 g ai/ha
  Plant response rating, Bermudagrass: 10
[5]; 16 g ai/ha
  Plant response rating, Bermudagrass: 20
[5]; 31 g ai/ha
  Plant response rating, Bermudagrass: 40
[5]; 62 g ai/ha
  Plant response rating, Bermudagrass: 80
[6]; 8 g ai/ha
  Plant response rating, Signalgrass: 75
[6]; 16 g ai/ha
  Plant response rating, Signalgrass: 90
[6]; 31 g ai/ha
  Plant response rating, Signalgrass: 98
[6]; 62 g ai/ha
  Plant response rating, Signalgrass: 100
[7]; 8 g ai/ha
  Plant response rating, Itchgrass: 10
[7]; 16 g ai/ha
  Plant response rating, Itchgrass: 90
[7]; 31 g ai/ha
  Plant response rating, Itchgrass: 95
[7]; 62 g ai/ha
  Plant response rating, Itchgrass: 100
[8]; 8 g ai/ha
  Plant response rating, Johnsongrass: 20
[8]; 16 g ai/ha
  Plant response rating, Johnsongrass: 60
[8]; 31 g ai/ha
  Plant response rating, Johnsongrass: 100
[8]; 62 g ai/ha
  Plant response rating, Johnsongrass: 100
[9]; 8 g ai/ha
  Plant response rating, Crabgrass, Large: 25
[9]; 16 g ai/ha
  Plant response rating, Crabgrass, Large: 80
[9]; 31 g ai/ha
  Plant response rating, Crabgrass, Large: 95
[9]; 62 g ai/ha
  Plant response rating, Crabgrass, Large: 100
[10]; 8 g ai/ha
  Plant response rating, Crabgrass, Naked: 10
[10]; 16 g ai/ha
  Plant response rating, Crabgrass, Naked: 85
[10]; 31 g ai/ha
  Plant response rating, Crabgrass, Naked: 90
[10]; 62 g ai/ha
  Plant response rating, Crabgrass, Naked: 90
[11]; 8 g ai/ha
  Plant response rating, Nutsedge, Purple: 0
[11]; 16 g ai/ha
  Plant response rating, Nutsedge, Purple: 0
[11]; 31 g ai/ha
  Plant response rating, Nutsedge, Purple: 0
[11]; 62 g ai/ha
  Plant response rating, Nutsedge, Purple: 0
[12]; 8 g ai/ha
  Plant response rating, Sandbur, S.: 60
[12]; 16 g ai/ha
  Plant response rating, Sandbur, S.: 80
[12]; 31 g ai/ha
  Plant response rating, Sandbur, S.: 90
[12]; 62 g ai/ha
  Plant response rating, Sandbur, S.: 95
[13]; 8 g ai/ha
  Plant response rating, Surinam Grass: 90
[13]; 16 g ai/ha
  Plant response rating, Surinam Grass: 90
[13]; 31 g ai/ha
  Plant response rating, Surinam Grass: 100
[13]; 62 g ai/ha
  Plant response rating, Surinam Grass: 100
